Entries after “also recorded” stand apart in the source; their conditions may differ. Read-outs that look alike come from different tables or passages of the source. Non-standard residues stand in square brackets, D forms with d. Residues, ends and D or L forms follow the SMILES beside them. pS = N[C@@H](COP(=O)(O)O)C(=O)O
Columns and labels:
[1] = system: Kv1.2–FMRP interaction, cerebellar homogenates; assay: Co-IP of Kv1.2 with FMRP (anti-FMRP antibody), peptide blocking; type: binding; conditions: WT mouse cerebellar homogenates; 250 μM peptide added prior to anti-FMRP antibody; immunoblot; at least in triplicate
Method: Whole cerebellums from WT and Fmr1 KO mice were homogenized in ice-cold Pull-Down buffer (1% Lubrol, 50 mM Tris–HCl, pH 7.4, 10 nM Na-orthovanadate, 30 mM Na-pyrophosphate, 50 mM NaF, 20 μm ZnCl2, and 0.25 mM PMSF, with the addition of protease inhibitor cocktail) using a Potter-Elvehjem grinding chamber (VWR). Samples were then centrifuged at 5000g for 20 min and 500 μL of supernatants were transferred into 1.5 ml Eppendorf tubes. 1:100 dilutions of anti-FMRP (Abcam 17722), anti-Kv1.2 (K14/16; Neuromab), anti-Kv1.2 ext-c (extracellular; Alomone labs), anti-Kv1.2 N-term (NBP1-42802; Novus), or anti-GAPDH (GAPDH-71.1; 1:80,000; Sigma-Aldrich) antibodies were added to the homogenate and incubated at 4 °C under continuous agitation for 2 h. A total 30 μL of a 1:1 mixture of pre-washed protein A and protein G magnabeads (Genscript) was then added and the samples were incubated under the same conditions for another 2 h. Beads were washed 4 times with PBS-Tween (0.2% Tween w/v) and then centrifuged at 3000g for 1 min. A sample was kept to verify total protein input. Protein was disassociated from the beads with the addition of 30 μL of 2× loading buffer (4% SDS, 20% glycerol w/v, 0.1 M dithiothreitol, 100 mM Tris–HCl, pH 6.8) then submitting the samples to 3 min at 95 °C. […] Bands were quantified as previously described using the AlphaEase SA software. […]

BC–PN synapse, WT = assay: sIPSCs from PNs, paired BC–PN recording, WT synapses; type: cell-based, mouse; conditions: peptide 2.5 mM infused into WT BCs, before and 20 min after; n = 5-6
[2] = target: T1, recombinant full-length FMRP (isoform 1) (Homo sapiens, UniProt Q06787); assay: In vitro intrinsic protein fluorescence binding assay; conditions: for change of fluorescence emission spectrum of FMRP (binding): 500–1000 μM peptide and 1 μM FMRP, 100 mM NaCl, 50 mM Na2PO4 pH 7.4, 2 mM DTT, 20 °C, excitation 287 nm; for Kd: 1 μM FMRP, pH 7.4, 20 °C; for co-operativity of binding to dimeric FMRP: fit of binding data to dimer models
T1 construct: containing cDNA for full-length human FMRP; His-SUMO (N, cleaved yes); made in house; host or cells: Escherichia coli BL21 (DE3) Codon Plus
Method: Small Ubiquitin-like Modifier (SUMO) fusion construct containing cDNA for full-length human FMRP was generated by gene synthesis (GenScript USA Inc.) and subcloned into a pET SUMO vector (Invitrogen). […] The pET SUMO–FMRP construct was transformed into Escherichia coli BL21 (DE3) Codon Plus cells and grown at 37 °C in Lennox broth medium. Protein expression was induced with 0.5 mM isopropyl-β-D-thiogalactopyranoside when optical density reached ~0.6, followed by 18 h of additional growth at 16 °C. Cells were harvested by centrifugation and pellets stored at −20 °C. In order to purify SUMO–FMRP, thawed pellets were resuspended in lysis buffer [50 mM Tris, pH 8.0, 500 mM NaCl, 20 mM imidazole, 10% glycerol, 250 mM arginine, 5 mM benzamidine, and 2 mM dithiothreitol (DTT)], supplemented with DNAse 1 and cOmplete™ Protease Inhibitor Cocktail (Sigma-Aldrich). After cell lysis and centrifugation, the filtered supernatant was loaded onto a 20 ml NiNTA column equilibrated in the same lysis buffer. The column was extensively washed with 20 column volumes (CV) of the same buffer supplemented with 100 mM imidazole. Elution of SUMO-fusion FMRP was performed using 100–500 mM imidazole gradient, and protein-containing fractions were combined and a 6× His tagged Ulp protease was added. Cleavage of the His-SUMO tag was performed overnight in a cold room (7 °C) while dialyzing in 4 L of 50 mM Tris, pH 8.0, 500 mM NaCl, 50 mM imidazole, 10% glycerol, 250 mM arginine, 5 mM benzamidine, and 2 mM DTT. Complete cleavage of the SUMO tag by Ulp was confirmed by SDS-PAGE and the protein of interest was separated from the Ulp protease and SUMO tag by passing the cleavage reaction over a second NiNTA column. Flow-through and wash fractions containing protein of interest were combined and then loaded onto a Superdex 200 gel filtration column pre-equilibrated with the same lysis buffer.
The eluted purified proteins were analyzed by both SDS-PAGE and mass spectrometry, and the combined fractions were dialyzed three times in 5 L of Fluorescence Binding Buffer (100 mM NaCl, 50 mM Na2PO4 pH 7.4, 2 mM DTT). After filtering through a 0.22 μm GV Durapore Centrifugal Filter Unit (Millipore), FMRP concentration was determined by absorbance at 280 nm using a molar extinction coefficient of 48,360 M^−1 cm^−1, and the protein was used for binding studies with Kv1.2 C-terminal peptides.
All measurements were carried out in the Fluorescence Binding Buffer at 20 °C using a PTI Quanta Master 80 Spectrofluorometer (HORIBA Scientific) by monitoring intrinsic protein fluorescence with an excitation wavelength of 287 nm. Prior to performing a binding titration for any of the peptides, a full emission spectrum (300–450 nm) of the peptide:FMRP complex was compared to that of apo-FMRP. Differences in the spectrum of the complex (500–1000 μM peptide and 1 μM FMRP) and apo-FMRP at the same concentration (i.e., fluorescence quenching, enhancement or shifts of the emission maximum) indicated binding. For each of these peptides, binding measurements were performed by adding aliquots of saturated 1 µM FMRP:peptide complex (titration solution) to 400 μL of 1 μM apo-FMRP solution as described by Wells and Di Cera. Briefly, at each titration step, a volume vD was removed from the cuvette containing the apo-FMRP and replaced by an equal volume of the titration solution (1 μM FMRP: 200–500 μM peptide complex). As a result, the concentration of FMRP (1 μM) and total volume of solution in the cuvette, V = 400 μL, remained constant while the concentration of the peptide at the ith titration step, [peptide]i, was increased, and given by
[peptide]i = [peptide]0^i.D^i+[peptide]∞^i.(1 − D^i),
where, [peptide]0 was the initial peptide concentration in the cuvette, [peptide]∞ was the peptide concentration in the titration solution, and D was the dilution factor, D = (V − vD)/V. […]

[3] = system: PNs, WT and Fmr1-KO cerebellar slices; type: cell-based, mouse
[4] = system: PNs, Fmr1-KO cerebellar slices; assay: Spontaneous firing of PNs, cell-attached, Fmr1-KO; type: cell-based, mouse; conditions: 10 μM, co-applied with NBQX (10 μM); Fmr1-KO compared with WT

## PKIPSSPDLKKSRSASTISKSD [Kv436-457]
[1]
  inhibition of Kv1.2–FMRP binding (co-IP): Neither the non-phosphorylated peptide with the identical sequence (Kv436-457, ^436PKIPSSPDLKKSRSASTISKSD^457) nor the doubly-phosphorylated scrambled peptide (IKPSTLSDSRAKpSSDPpSKPSIK) inhibited the Kv1.2–FMRP binding activity
BC–PN synapse, WT
  amplitude and frequency of sIPSCs: but not the non-phosphorylated or scrambled phosphorylated peptide, significantly elevated the amplitude and frequency of sIPSCs
[2]; listed as non-phosphorylated
  change of fluorescence emission spectrum of FMRP (binding): no change in the fluorescence emission spectrum of FMRP
[2]; listed as non-phosphorylated Kv1.2 C-terminal peptide
  change of fluorescence emission spectrum of FMRP (binding): no binding

## NC1=N[C@H](O)[C@H]2[C@H]3O[C@]4(O)O[C@@H]([C@@H](O)[C@@]2(N1)[C@@H]4O)[C@]3(O)CO [TTX, tetrodotoxin]
[3]
  amplitude and frequency of mIPSCs, WT versus KO: the amplitude and frequency of mIPSCs became indistinguishable between the two groups

## CC[C@H](C)[C@H](NC(=O)[C@@H](NC(=O)[C@H](CO)NC(=O)[C@H](C)NC(=O)[C@H](CO)NC(=O)[C@H](CCCNC(=N)N)NC(=O)[C@H](CO)NC(=O)[C@H](CCCCN)NC(=O)[C@H](CCCCN)NC(=O)[C@H](CC(C)C)NC(=O)[C@H](CC(=O)O)NC(=O)[C@@H]1CCCN1C(=O)[C@H](COP(=O)(O)O)NC(=O)[C@H](COP(=O)(O)O)NC(=O)[C@@H]1CCCN1C(=O)[C@@H](NC(=O)[C@H](CCCCN)NC(=O)[C@@H]1CCCN1)[C@@H](C)CC)[C@@H](C)O)C(=O)N[C@@H](CO)C(=O)N[C@@H](CCCCN)C(=O)N[C@@H](CO)C(=O)N[C@@H](CC(=O)O)C(=O)O [PhosKv436-457] (H-PKIP[pS][pS]PDLKKSRSASTISKSD-OH)
[2]; model D1: dimer with one binding site, read-out: KD1, model D1
  Kd: 10.1 ± 4.4 µM
[2]; model D2i: dimer with two independent binding sites, read-out: KD1, model D2i
  Kd: 1.08 ± 0.26 µM

## CN1CCc2cc3c(cc2[C@H]1[C@@H]1OC(=O)c2c1ccc1c2OCO1)OCO3 [bicuculline]
[4]
  difference in PN firing rates between WT and KO: the differences in PN firing rates were abolished
[3]; 10 μM, holding −60 mV
  elimination of IPSC events: eliminated all the events

## CC[C@H](C)[C@H](NC(=O)[C@@H](NC(=O)[C@H](CO)NC(=O)[C@H](C)NC(=O)[C@H](CO)NC(=O)[C@H](CCCNC(=N)N)NC(=O)[C@H](CO)NC(=O)[C@H](CCCCN)NC(=O)[C@H](CCCCN)NC(=O)[C@H](CC(C)C)NC(=O)[C@H](CC(=O)O)NC(=O)[C@@H]1CCCN1C(=O)[C@H](CO)NC(=O)[C@H](COP(=O)(O)O)NC(=O)[C@@H]1CCCN1C(=O)[C@@H](NC(=O)[C@H](CCCCN)NC(=O)[C@@H]1CCCN1)[C@@H](C)CC)[C@@H](C)O)C(=O)N[C@@H](CO)C(=O)N[C@@H](CCCCN)C(=O)N[C@@H](CO)C(=O)N[C@@H](CC(=O)O)C(=O)O [pS440] (H-PKIP[pS]SPDLKKSRSASTISKSD-OH; N-terminus and C-terminus assumed)
[2]
  change of fluorescence emission spectrum of FMRP (binding): significant spectral changes; also recorded: phosphorylation-mediated interaction
  co-operativity of binding to dimeric FMRP: with cooperativity; also recorded: binds dimeric FMRP in a co-operative mechanism
  reduced χ2 of fit, model D1: 11.6
  χ2 of fit, model D1: 92.8
  reduced χ2 of fit, model D2i: 2.3
  χ2 of fit, model D2i: 16.4
[2]; model D2c
  enhancement of binding affinity of second ligand by binding of the first: ~ 80 fold
  reduced χ2 of fit, model D2c: 0.16
  χ2 of fit, model D2c: 0.99

## CC[C@H](C)[C@H](NC(=O)[C@@H](NC(=O)[C@H](CO)NC(=O)[C@H](C)NC(=O)[C@H](CO)NC(=O)[C@H](CCCNC(=N)N)NC(=O)[C@H](CO)NC(=O)[C@H](CCCCN)NC(=O)[C@H](CCCCN)NC(=O)[C@H](CC(C)C)NC(=O)[C@H](CC(=O)O)NC(=O)[C@@H]1CCCN1C(=O)[C@H](COP(=O)(O)O)NC(=O)[C@H](CO)NC(=O)[C@@H]1CCCN1C(=O)[C@@H](NC(=O)[C@H](CCCCN)NC(=O)[C@@H]1CCCN1)[C@@H](C)CC)[C@@H](C)O)C(=O)N[C@@H](CO)C(=O)N[C@@H](CCCCN)C(=O)N[C@@H](CO)C(=O)N[C@@H](CC(=O)O)C(=O)O [pS441] (H-PKIPS[pS]PDLKKSRSASTISKSD-OH; N-terminus and C-terminus assumed)
[2]
  change of fluorescence emission spectrum of FMRP (binding): significant spectral changes; also recorded: phosphorylation-mediated interaction
  co-operativity of binding to dimeric FMRP: without cooperativity; also recorded: did not produce co-operative binding effects
  reduced χ2 of fit, model D1: 10
  χ2 of fit, model D1: 106
  reduced χ2 of fit, model D2i: 11
  χ2 of fit, model D2i: 107
[2]; FMRP dimer models
  binding affinity relative to the other phospho-peptides: did bind with similar affinities
[2]; model D2c
  fit to D2c model: could not be fitted to the D2c model
[2]; models D1 and D2i versus KD1 of pS440 (D2c)
  KD tighter than the KD1 of pS440: ~ 5 fold
[2]; models D1 and D2i versus KD2 of pS440 (D2c)
  KD weaker than the KD2 of pS440: ~ 15 fold

Source: paper PMC7473840, “Identification of a molecular locus for normalizing dysregulated GABA release from interneurons in the Fragile X brain” (Molecular Psychiatry, 2018)
